pIC50: −log10 of the molar value.
Key:
[1] = system: orthotopic syngeneic Panc02 pancreatic tumor; test: Panc02 mouse orthotopic pancreatic cancer model, survival; type: in vivo, C57BL/6 mice; parameters: % Survival: concentration or dose not given beside the values; settings: for % Survival: Table 2
Procedure: At day 0, 50 μl of 1×10^6 viable Panc02 cells per ml were injected onto the pancreas to produce orthotopic tumors in 6- to 8-week old C57BL/6 mice. Mice were then treated every day with oral administration of vehicle (negative control), or sodium decanoate and with intraperitoneal injection of gemcitabine (50 mg/kg) once a week (day 1, 8, 15, etc.).
The effect of gemcitabine and tricaprin in combination with gemcitabine in orthotopic pancreatic Panc02 cancer was determined as described in Example 3.

[2] = system: syngeneic Panc02 pancreas tumor; test: Panc02 mouse pancreatic cancer model, intradermal syngeneic tumor growth; type: in vivo, C57BL/6 mice; settings: for anticancer activity in the early phase of the treatment: given alone
Procedure: The syngeneic Panc02 is a pancreatic adenocarcinoma tumor cell line obtained from NCI (0507232). Panc02 cells are positive for Ki-Ras, p53, HerNEU and CDK. Panc02 were grown in RPMI-1640 containing 10% fetal bovine serum. At day 0, 50 μl of 7.5×10^5 viable Panc02 cells were intradermally injected to produce localized tumors in 6- to 8-week old C57BL/6 mice. The animals were then serially monitored by manual palpation for evidence of tumor. Mice were then treated every day with oral administration of vehicle (negative control), or sodium decanoate and with intraperitoneal injection of gemcitabine (50 mg/kg) at day 21, 28, 35 and 42. Mice were sacrificed between days 36 to 50. Serial tumor volume was obtained by bi-dimensional diameter measurements with calipers, using the formula 0.4 (a×b^2) where “a” was the major tumor diameter and “b” the minor perpendicular diameter. Tumors were palpable, in general, 3-5 days post-inoculation. Percentage of tumor growth is reported as the percentage of growth of the pancreatic tumor on a given day relative to that growth which is observed on the first day of treatment with medium-chain length fatty acid, or sodium salt or triglyceride or vehicle (control). T/C is defined as: Treated Tumor Growth CYO/Control Tumor Growth (%).
The effect of sodium dodecanoate and gemcitabine in pancreatic Panc02 cancer was determined as described in Example 2.

[3] = system: syngeneic Panc02 pancreas tumor; test: as above; type: in vivo, C57BL/6 mice
[4] = system: metastatic pancreatic cancer; settings: pancreatic cancer patients after metastasis; cited from earlier work
Panc02 cells = test: In vitro cytotoxicity (MTT) on pancreatic cancer cells; type: cell-based; settings: Mus musculus, 24 h cell culture
Procedure: This assay was performed to determine the effect of compounds of the present invention on cell cytotoxicity. Panc02 cells were incubated in presence or absence of compounds in RPMI-1640 conditioned media. After 24 hours incubation, 50 μl of 3-(4,5-dimethyl-2-thiazyl)-2,5-diphenyl-2H-tetrazolium bromide ([…]; 2 mg/ml) was added and further incubated for 4 hours. The supernatant was discarded and 100 μl of dimethylsulfoxide (DMSO) was added. Absorbance was read at 570 nm with an ELISA Tecan Sunrise plate reader. The control group consisted of cells without compounds and is referred to as 100% of viable cells. IC50 was determined using Prism software.

Question: Which results are given for `Nc1ccn([C@@H]2O[C@H](CO)[C@@H](O)C2(F)F)c(=O)n1` [Gemcitabine]?
Answer: survival compared with mice that had received vehicle ([1]; FIG. 5): prolonged survival; Median survival ([1]; FIG. 5, gemcitabine 50 mg/kg once a week, sodium decanoate oral 200 mg/kg every day): 71 days; survival compared with mice that had received vehicle ([1]; FIG. 7): prolonged survival; Median survival ([1]; FIG. 7, gemcitabine 50 mg/kg, tricaprin oral 600 mg/kg): 53.5 days; % Survival ([1]; day 58): 86%; % Survival ([1]; day 72): 42%; % Survival ([1]; day 83): 28%; % Survival ([1]; day 87): 14%; % Survival ([1]; day 92): 0%; % Survival ([1]; day 92, listed as gemcitabine): all mice are dead; inhibition of tumor growth (p<0.05) ([2]; FIG. 1, gemcitabine 50 mg/kg, day 27 to 34): significant inhibition; inhibition of tumor growth (p<0.05) ([2]; FIG. 2, gemcitabine alone, day 23 to 37): significant (p<0.05) inhibition; anticancer activity in the early phase of the treatment ([2]; FIG. 3): did not display anticancer activities; anticancer activity in the early phase of the treatment ([2]; FIG. 4): did not display anticancer activities; inhibition of tumor growth (p<0.05) ([2]; FIG. 6, gemcitabine 50 mg/kg, day 44): significant inhibition; mortality ([2]; increased concentration of gemcitabine): mortality is observed; T/C ([3]; FIG. 3, gemcitabine 25 mg/kg alone): > 40; inhibition of tumor growth (p<0.05) ([3]; FIG. 3, gemcitabine 25 mg/kg, day 39): significant inhibition; T/C ([3]; FIG. 4, gemcitabine 10 mg/kg alone): no T/C<40; inhibition of tumor growth (p<0.05) ([3]; FIG. 4, gemcitabine 10 mg/kg, day 41): significant inhibition; one-year survival [4]: 18%

Question: Which “inhibition of tumor growth (p<0.05)” value ([2]; FIG. 6, sodium dodecanoate oral 200 mg/kg, day 44) does the source give for `CCCCCCCCCCCC(=O)[O-].[Na+]` [Sodium dodecanoate] here?
Answer: significant inhibition

Question: What about the pIC50 (Panc02 cells) of the same compound?
Answer: 3.82

Question: With `CCCCCCCCCC(=O)O` [Decanoic acid] as the compound, how does the pIC50 (Panc02 cells) read?
Answer: 3.20

Question: Which results are given for `CCCCCCCCCC(=O)[O-].[Na+]` [PBI-1402]?
Answer: anticancer activity in the early phase of the treatment ([2]; FIG. 3): did not display anticancer activities; anticancer activity in the early phase of the treatment ([2]; FIG. 4): did not display anticancer activities

Question: With `CCCCCCCCCC(=O)[O-].[Na+]` [Sodium decanoate] as the compound, how does the “inhibition of tumor growth (p<0.05)” value ([2]; FIG. 1, sodium decanoate oral 100 mg/kg, day 23 to 44) read?
Answer: significant inhibition

Question: What about the “tumor growth inhibition compared to control (p<0.05)” value ([2]; FIG. 2, sodium decanoate 400 mg/kg, day 23 to 37) of the same compound?
Answer: significant

Question: And the “inhibition of tumor growth (p<0.05)” value ([2]; FIG. 2, sodium decanoate oral 100, 200 and 400 mg/kg)?
Answer: significant (p<0.05) inhibition of the tumor growth in a dose dependent fashion

Question: And the pIC50 (Panc02 cells)?
Answer: 3.28

Source: patent publication US8946190B2, “Medium-chain length fatty acids, salts and triglycerides in combination with gemcitabine for treatment of pancreatic cancer” (priority 2007, dated 2015)
